Reference: publication PMC4581321, “Inhibitory Effects of Amorphigenin on the Mitochondrial Complex I of Culex pipiens pallens Coquillett (Diptera: Culicidae)” (International Journal of Molecular Sciences, 2015)
pIC50: −log10 of the molar value. Converted amounts (≈) assume the structure as drawn. Like-named read-outs stand apart in the source and are kept apart here.

Tests used:
[1] = tested on: acetylcholinesterase enzyme; design: method as in doi:10.1016/j.pestbp.2011.12.002; settings: cited from earlier work
[2] = tested on: bovine heart mitochondrial complex I; settings: cited from earlier work
[3] = tested on: mitochondrial complex I prepared from a pig's heart; design: method as in doi:10.1016/S0926-6593(65)80060-1; settings: cited from earlier work
[4] = tested on: mitochondrial complex I of Cx. pipiens pallens; assay: In vivo inhibition of mitochondrial complex I activity (fourth-instar larvae exposed 24 h, then mitochondria isolated); design: species or system Culex pipiens pallens; settings: for decrease of mitochondrial complex I activity compared with control: 24 h
[5] = tested on: mitochondrial complex I of Cx. pipiens pallens; assay: In vitro inhibition of mitochondrial complex I activity (NADH oxidation at 340 nm, isolated larval mitochondria); type: biochemical, Culex pipiens pallens; settings: NADH substrate; for pIC50: isolated mitochondria, read-out: IC50 (μmol/L), in vitro
Description: The mitochondria of the fourth instar larvae of Cx. pipiens pallens were isolated according to the method of Akbar et al. with suitable modifications. The larvae were washed in a cold extraction medium (0.25 M sucrose solution containing 0.25% defatted BSA), then homogenized in a Potter–Elvehjem homogenizer under cold conditions. The homogenate was filtered through a moist muslin cloth and the filtrate centrifuged at 1000× g for 15 min at 4 °C. The residue was re-suspended in the extraction medium and centrifuged at 1000× g for 15 min at 4 °C. The supernatants from both centrifugations were combined and centrifuged at 12,000× g for 15 min at 4 °C. The mitochondrial pellet was re-suspended in the extraction medium, and stored at −80 °C until used. The protein concentration was determined by Smith’s method using BSA as the standard.
The mitochondrial complex I activity of Cx. pipiens pallens was determined as described by Birch-Machin et al. with adaptations for a 96-well format. It is well known that the mitochondrial complex I has two substrates, NADH and ubiquinone. […] The activity was measured by following the decrease in absorbance due to the oxidation of NADH at 340 nm with 425 nm as the reference wavelength. In brief, 20 μL of mitochondria and 160 μL of assay buffer containing 25 mM phosphate buffer (pH 7.2), 5 mM MgCl2, 2 mM NaN3 and 2.5 mg/mL BSA were added to each well of the 96-well plate, then the microplate was incubated for 20 min at 37 °C in a microplate reader (Spectramax 190 plate reader; Molecular Devices, Sunnyvale, CA, USA). Finally, the reaction was initiated by the addition of 10 μL of 0.13 mM NADH and measured for 5 min.
For the assay of in vitro inhibition of the mitochondrial complex I activities, 10 μL of different concentrations each of amorphigenin and rotenone were prepared in alcohol and diluted in 25 mM phosphate buffer (pH 7.2), then mixed with 10 μL of the mitochondria. The enzyme activity was immediately determined by the method as described above. For negative controls, 10 μL of 25 mM phosphate buffer (pH 7.2) instead of amorphigenin or rotenone were used in the assays. The inhibitory extent of the compounds was expressed as the inhibitor concentrations leading to 50% of the enzyme activity reduction (IC50).
Applying Microsoft Excel 2003 software (Microsoft, Redmond, WA, USA), the average enzyme activitie results, adjusted by Abbott, were subjected to probit analysis to calculate IC50 and correlation coefficient.

[6] = tested on: NADH-ubiquinone reductase of bovine heart submitochondrial particles; design: method as in PMID 7925463; settings: against exogenous quinine DB and DPB; cited from earlier work
[7] = design: method as in earlier work; settings: summer sunlight; cited from earlier work
[8] = tested on: mitochondrial complex I from submitochondrial particles of blow fly flight-muscle; design: method as in doi:10.1016/S0960-894X(00)80645-9; settings: cited from earlier work
[9] = tested on: 3th instar larvae of Bombyx mori; settings: cited from earlier work; for LC50: 3th instar larvae
[10] = tested on: mitochondrial complex I of Cx. pipiens pallens; assay: Inhibition type and constants of mitochondrial complex I (enzyme-concentration plots, Lineweaver-Burk plots); type: biochemical, Culex pipiens pallens; settings: for inhibition type: Lineweaver-Burk plots, NADH and endogenous ubiquinone as substrates; for reversibility of inhibition: enzyme activity vs enzyme concentration plots
Excerpt: The inhibition effect on the mitochondrial complex I by amorphigenin and rotenone was also studied. […] The plots yielded straight lines passing through the origin.
The inhibitory kinetics of the mitochondrial complex I by amorphigenin and rotenone were studied by Lineweaver–Burk plots. […] Under the experimental conditions employed, the oxidative reaction of NADH by the mitochondrial complex I followed Michaelis–Menten kinetics. The double-reciprocal plots yielded a family of straight lines with different slopes and intercepts but they intersected one another in the second quadrant. […] Equilibrium constants for inhibitor binding with the free enzyme (KI) and with the enzyme-substrate complex (KIS) can be calculated according to the Foumulations (1) and (2) based on the slope and the vertical intercept against the concentration of inhibitors in Figure 3, respectively. (1) Slope=Ks/Vm(1+[I]/KI) (2) Intercept=1/Vm(1+[I]/KIS)
Different concentrations of NADH were incubated with the mitochondria and assay buffer to examine the enzyme kinetics of NADH with and without the addition of various concentrations of rotenoids. The inhibition type of the compounds on the enzyme was assayed by Lineweaver-Burk plots. The inhibition constant was determined by plots of the apparent 1/Vm or Km/Vm versus concentration of the inhibitor [40, 58].

[11] = tested on: mammalian NADH-ubiquinone reductase; design: method as in PMID 7925463; settings: relative to rotenone; cited from earlier work
[12] = tested on: fourth instar larvae of A. aegypti; design: method as in doi:10.1016/S0031-9422(00)83185-4; settings: 10 ppm; cited from earlier work
[13] = tested on: larvae of Culex pipiens pallens; design: method as in PMID 25690287; settings: cited from earlier work

## Cc1ccc(C(C)C)cc1O [Carvacrol, carvacrol]
[1]; house flies, ticks and cockroaches
  inhibition of acetylcholinesterase enzyme: slight inhibition
[1]; mosquito
  inhibition of acetylcholinesterase enzyme: did not inhibit

## arylazidoamorphigenin
[2]
  inhibitory potency compared with rotenone: comparable with those of rotenone

## C=C(C)C1Cc2c(ccc3c2OC2COc4cc(OC)c(OC)cc4C2C3O)O1 (stereo not shown) [rotenone reduced with NaBH4]
[3]
  in vitro IC50: 2.0 × 10^−5 μmol/mg protein

## C=C(C)[C@H]1Cc2c(ccc3c2O[C@@H]2COc4cc(OC)c(OC)cc4[C@@H]2C3=O)O1 [Rotenone, reference compound]
[4]; 1.25 μmol/L, NADH substrate
  decrease of mitochondrial complex I activity compared with control: 1.45 fold
[4]; 2.5 μmol/L, NADH substrate
  decrease of mitochondrial complex I activity compared with control: 1.77 fold
[4]; 5 μmol/L, NADH substrate
  decrease of mitochondrial complex I activity compared with control: 2.41 fold
[4]; read-out: IC50 (μmol/L), in vivo, fourth-instar larvae exposed 24 h, NADH substrate
  pIC50: 5.60
[5]; 3 μmol/L
  decrease of mitochondrial complex I activity compared with control: significantly decreased
[5]; 4 μmol/L
  decrease of mitochondrial complex I activity compared with control: significantly decreased
[5]
  pIC50: 5.50
[6]
  inhibition type: noncompetitive
[7]
  time until all toxicity is lost: 2 to 3 days
[8]
  inhibition type: reversible competitive inhibitor
[9]
  LC50: 9.33 µg/mL (≈ 23.7 µM)
[3]
  in vitro IC50: 1.8 × 10^−5 μmol/mg protein
[10]
  inhibition type: mixed-I type
  reversibility of inhibition: reversible

## C=C(C)[C@@H]1CCC2=CC(=O)C[C@@H](C)[C@]2(C)C1 [Nootkatone, nootkatone]
[1]; any of the four arthropod models tested
  inhibition of acetylcholinesterase enzyme: did not inhibit

## C=C(C)[C@@H]1Cc2c(ccc3c2O[C@@H]2COc4cc(OC)c(OC)cc4[C@@H]2C3=O)O1 [5′β- epirotenone]
[9]
  LC50: 225.70 µg/mL (≈ 572 µM)
[9]; relative to rotenone
  times less toxic than rotenone: about 24 times
[11]
  times less inhibiting than rotenone: about 1000 times

## amorphigenin 8′-β-glucoside
[12]
  loss of the fourth instar larvae: 85%
  pupae formation: without the formation of pupae

## C=C(CO)[C@H]1Cc2c(ccc3c2O[C@@H]2COc4cc(OC)c(OC)cc4[C@@H]2C3=O)O1 [Amorphigenin]
[2]
  inhibitory potency compared with rotenone: comparable with rotenone
[4]; 1.25 μmol/L, NADH substrate
  decrease of mitochondrial complex I activity compared with control: 1.52 fold
[4]; 2.5 μmol/L, NADH substrate
  decrease of mitochondrial complex I activity compared with control: 1.78 fold
[4]; 5 μmol/L, NADH substrate
  decrease of mitochondrial complex I activity compared with control: 2.43 fold
[4]; fourth-instar larvae exposed 24 h, NADH substrate, read-out: IC50 (μmol/L), in vivo
  pIC50: 5.61
[5]; 2 μmol/L
  decrease of mitochondrial complex I activity compared with control: 27.38%
[5]; 3 μmol/L
  decrease of mitochondrial complex I activity compared with control: 50.00%
[5]; 4 μmol/L
  decrease of mitochondrial complex I activity compared with control: 70.24%
[5]
  pIC50: 5.54
[13]
  LC50, larvicidal activity: 4.29 µg/mL (≈ 10.5 µM)
  LC90, larvicidal activity: 11.27 µg/mL (≈ 27.5 µM)
[10]
  inhibition type: mixed-I type
  reversibility of inhibition: reversible
